Data set [1] addresses T1, gastrin-releasing peptide receptor (GRP-R) on PC-3 human prostate cancer cells (Homo sapiens, UniProt P30550).
T1 construct: endogenous in cells; host or cells: PC-3 human prostate cancer cells
Put plainly: Saturation binding experiments on whole PC-3 cells with 111In-labeled DOTA-PEG4-BN conjugates. The conditions noted are these: 4 °C; for B max (binding sites/cell) *10^5: 111In-labeled. As for the experimental part:
DOTA-PEG4-BN conjugates were studied in vitro performing saturation binding experiments on whole cells. The DOTA coupled derivatives were labeled in Eppendorf tubes containing 10 μL of ^111InCl3 (50–150 KBq/μL), 1 nmol of peptide (10 μM final concentration), and sodium acetate buffer (0.4 M, pH 5) adjusted to a final volume of 100 μL. The solution was incubated for 30 min at 95 °C in a heating block. Silica gel thin layer chromatography using 0.1 N sodium citrate (pH 5) as mobile phase was utilized for quality control. […] Saturation of free chelators with cold indium was not performed. Confluent PC-3 human prostate cancer cells were seeded in six-well plates (~1.0 × 10^6 cells) 24 h before starting the experiments. Increasing concentrations of the ^111In-DOTA-peptide ranging from 50 to 0.05 nM were assigned to different wells. For blocking experiments, excess of the respective unlabeled peptide was used. For each radioligand, triplicates were prepared for every concentration, for both total binding and nonspecific binding. Before adding the radioligands to the wells, the plates were placed on ice for 30 min. After adding the radioligands and the blocking for nonspecific binding, the plates were incubated for 1 h at 4 °C. Afterwards, the binding buffer was removed and the cells were washed twice with ice-cold phosphate-buffered saline (PBS; pH 7.4). Cell-bound radioactivity was subsequently recovered by trypsinization of the wells. Radioactivity in the bound and free fractions was determined with a WIZARD gamma counter (Wallac, Turku, Finland). Specific binding was calculated by subtracting nonspecific from total binding at each concentration of radioligand. Affinity (Kd) and binding site density (Bmax) were calculated from Scatchard plots using Prism software (GraphPad Software Inc.).
Saturation binding experiments were performed on PC-3 cells at 4 °C.

Data set [2] deals with PC-3 xenografts. The experiment in a line: Biodistribution in nude mice bearing subcutaneous PC-3 xenografts. The format is in vivo, CD1 nude mice. Here is the method:
(§1) For animal experiments, the institutional and national guide for the care and use of laboratory animals was followed. CD1 nude mice (n = 36, female, 6 weeks old, 18-22 g body weight) were subcutaneously injected in the right thigh with 2 × 10^6 PC-3 cells in 300 μl of a medium-to-matrigel solution (50:50, v:v, BD Biosciences). […] DOTA-PEG4-BN conjugates were radiolabelled with ^111In as described elsewhere, and 1.85 MBq (0.25 μg, 7.4 MBq/μg in 100 μl NaCl) of radiopharmaceutical was injected in the tail vein of each animal. Injected dose was determined by counting the syringe before and after injection. At 1 h post injection, three mice per group were anesthetized and placed on a horizontal support for planar imaging. The same procedure was repeated at 6 h and 24 h post injection. Images were acquired for 60 to 90 s with a high-resolution scintigraphic camera equipped with a square tungsten collimator integrated with a CsI(Tl) scintillation structure, coupled to a Hamamatsu […] Flat Panel Position Sensitive Photomultiplier Tube (PSPMT), a pure tungsten shielding housing, a charge readout electronics, and a data acquisition system for online image display. Region of interest (ROI) analysis was performed by drawing a region over the visible tumor (target) and copying it to the opposite thigh (background). The counts in the tumor ROI divided by the counts in the background ROI provided tumor-to-background (T/B) ratios. After each imaging session, mice were euthanized. The organs and the tumors were excised and weighed, and the radioactivity was determined using a single well γ-counter. Results were expressed as percentage of injected dose per gram (%ID/g) of tissue.

The nature of data set [3]: Serum stability of 177Lu-labeled peptides in human serum. Format: in vitro ADME. Particulars: human serum (freshly prepared), 37 °C. Here is the method: Quality controls to determine the labeling yield and the radiochemical purity were performed using radio-HPLC. Radiolabeled peptides were utilized without further purification. […] The mixture was incubated in a 5 % CO2, 37 °C. At different time points, 100 μL aliquots (in triplicates) were removed and treated with 200 μL of EtOH to precipitate serum proteins. Samples were then centrifuged for 15 min at 5000 rpm (2655g). After centrifugation, 50 μL of supernatant was removed and counted in a γ-well counter; the sediment was washed twice with 1 mL of EtOH and counted. The activity in the supernatant was compared with the activity in the pellet to obtain the percentage of peptide not bound to proteins or radiometal transferred to serum proteins. The supernatant was also analyzed with radio-HPLC (eluents: A = 0.1 % trifluoroacetic acid in water and B = acetonitrile; gradient 0–25 min 95–50 % B) to determine the relative amount of intact peptide and its metabolites in the serum. The half-life was calculated fitting a first-order reaction to the experimental data (Equation 1) using Prism software (GraphPad Software Inc.).

Data set [4] can be described thus: Biodistribution in nude mice bearing subcutaneous PC-3 xenografts. The format is in vivo, CD1 nude mice. Particulars: female, CD1 nude, mouse, blood, iv, 0.25 μg, total radioactivity; 111In-labeled, 1 h post injection. Here is the method: as §1
The subject of data set [5] is PC-3 xenografts. The experiment in a line: Gamma camera planar imaging, tumor-to-background ROI analysis in mice with PC-3 xenografts. Format: in vivo, CD1 nude mice. As for the experimental part:
as §1, with “Region of interest (ROI) analysis was performed by drawing a region over the visible tumor (target) and copying it to the opposite thigh (background). The counts in the tumor ROI divided by the counts in the background ROI provided tumor-to-background (T/B) ratios. After each imaging session, mice were euthanized.” left out

Where [6] appears, read: 111In-labeled, i.v., 1, 6, 24 h.
Setting [7] is: first-order fit, read-out: Serum half-life (converted).

Structures are written as SMILES. Where two headings read alike, the source gives them in different places. Where a SMILES comes first, the peptide text is derived from it. [ ]: non-standard residue; d: D form. The star is where a group is joined. DOTA = O=C(O)CN1CCN(CC(=O)O)CCN(CC(=O)*)CCN(CC(=O)O)CC1; Sta = CC(C)C[C@H](N)[C@@H](O)CC(=O)O; Cha = N[C@@H](CC1CCCCC1)C(=O)O; Nle = CCCC[C@H](N)C(=O)O; AEEA = NCCOCCOCC(=O)O; Sar = CNCC(=O)O

T1 sequence (P30550 whole entry): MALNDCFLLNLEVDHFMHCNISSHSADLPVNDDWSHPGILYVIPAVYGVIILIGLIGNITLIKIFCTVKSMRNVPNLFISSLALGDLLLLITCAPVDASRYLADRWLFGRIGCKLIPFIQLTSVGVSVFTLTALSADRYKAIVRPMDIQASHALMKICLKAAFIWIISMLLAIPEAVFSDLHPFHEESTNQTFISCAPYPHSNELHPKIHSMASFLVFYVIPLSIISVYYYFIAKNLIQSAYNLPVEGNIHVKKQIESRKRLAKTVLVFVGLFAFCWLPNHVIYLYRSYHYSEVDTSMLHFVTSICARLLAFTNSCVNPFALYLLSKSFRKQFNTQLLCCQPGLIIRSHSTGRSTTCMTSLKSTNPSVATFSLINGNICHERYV

As for `CSCC[C@H](NC(=O)[C@H](CC(C)C)NC(=O)[C@H](Cc1c[nH]cn1)NC(=O)CNC(=O)[C@@H](NC(=O)[C@H](C)NC(=O)[C@H](Cc1c[nH]c2ccccc12)NC(=O)[C@H](CCC(N)=O)NC(=O)COCCOCCNC(=O)COCCOCCNC(=O)CN1CCN(CC(=O)O)CCN(CC(=O)O)CCN(CC(=O)O)CC1)C(C)C)C(N)=O` [BN1], the “B max (binding sites/cell) *10^5” value in data set [1] is 2.45 ± 0.73 binding sites/cell *10^5. For the same compound, the “Tumor targeting / uptake in PC-3 xenografts (in words)” value (from here on “Tumor targeting / uptake”) in the data set with PC-3 xenografts [2] (setting [6]) was “rather poor”. For the same compound, the “Blood clearance / circulating half-life (in words)” value in the data set on PC-3 xenografts [2] (mouse, in vivo, iv) is on record as “very rapid blood clearance”.
`CCCC[C@H](NC(=O)[C@H](CC1CCCCC1)NC(=O)[C@H](Cc1c[nH]cn1)NC(=O)CNC(=O)[C@@H](NC(=O)[C@H](C)NC(=O)[C@H](Cc1c[nH]c2ccccc12)NC(=O)[C@H](CCC(N)=O)NC(=O)COCCOCCNC(=O)COCCOCCNC(=O)CN1CCN(CC(=O)O)CCN(CC(=O)O)CCN(CC(=O)O)CC1)C(C)C)C(N)=O` [BN2, -Gln-Trp-Ala-Val-Gly-His-Cha-Nle-NH2] ({DOTA-AEEA-AEEA}-QWAVGH[Cha][Nle]-NH2): in data set [1], the “B max (binding sites/cell) *10^5” value is 4.10 ± 1.23 binding sites/cell *10^5. For the same compound, the half-life at 0.6 nmol/mL in data set [3] (setting [7]) was about 20 h.
For `CCCC[C@H](NC(=O)[C@H](CC1CCCCC1)NC(=O)[C@H](Cc1c[nH]cn1)NC(=O)CNC(=O)[C@@H](NC(=O)[C@H](C)NC(=O)[C@H](Cc1c[nH]c2ccccc12)NC(=O)[C@H](CCC(N)=O)NC(=O)COCCOCCNC(=O)COCCOCCNC(=O)CN1CCN(CC(=O)O)CCN(CC(=O)O)CCN(CC(=O)O)CC1)C(C)C)C(=O)N[C@@H](CCC(=O)O)C(N)=O` [BN3, -Gln-Trp-Ala-Val-Gly-His-Cha-Nle-Glu-NH2] ({DOTA-AEEA-AEEA}-QWAVGH[Cha][Nle]E-NH2), the “Specific binding to PC-3 cells (in words)” value in data set [1] is reported as “no specific binding was detectable”. Further, the half-life at 0.6 nmol/mL in data set [3] (setting [7]) was 40.7 h.
One may read the tissue uptake as the share of the injected amount in each gram of the tissue. On to `CC(C)C[C@H](NC(=O)C[C@H](O)[C@H](CC(C)C)NC(=O)[C@H](Cc1c[nH]cn1)NC(=O)CNC(=O)[C@@H](NC(=O)[C@H](C)NC(=O)[C@H](Cc1c[nH]c2ccccc12)NC(=O)[C@H](CCC(N)=O)NC(=O)COCCOCCNC(=O)COCCOCCNC(=O)CN1CCN(CC(=O)O)CCN(CC(=O)O)CCN(CC(=O)O)CC1)C(C)C)C(N)=O` [BN4, -Gln-Trp-Ala-Val-Gly-His-Sta-Leu-NH2] ({DOTA-AEEA-AEEA}-QWAVGH[Sta]L-NH2), for which, in data set [1], the “B max (binding sites/cell) *10^5” value is 5.54 ± 1.56 binding sites/cell *10^5. Also, in data set [3] (setting [7]), the half-life at 0.6 nmol/mL was 224 h. The tissue uptake at 1 h in data set [4] is about 5 %ID/g. Also, in the data set with PC-3 xenografts [2] (setting [6]), the “Blood clearance / circulating half-life (in words)” value was “longest circulating half-life of all tested compounds” and the “Tumor targeting / uptake” value is given as “very high initial uptake that dropped at later time points”. Moreover, the “Tumor-to-background (T/B) ratios in vivo (in words)” value in the data set with PC-3 xenografts [5] (111In-labeled, tumor ROI vs opposite thigh) was “least favorable of all peptides”.
Regarding `CC(C)C[C@H](NC(=O)C[C@H](O)[C@H](CC(C)C)NC(=O)[C@H](Cc1c[nH]cn1)NC(=O)CN(C)C(=O)[C@@H](NC(=O)[C@H](C)NC(=O)[C@H](Cc1c[nH]c2ccccc12)NC(=O)[C@H](CCC(N)=O)NC(=O)COCCOCCNC(=O)COCCOCCNC(=O)CN1CCN(CC(=O)O)CCN(CC(=O)O)CCN(CC(=O)O)CC1)C(C)C)C(N)=O` [BN5, -Gln-Trp-Ala-Val-NMeGly-His-Sta-Leu-NH2] ({DOTA-AEEA-AEEA}-QWAV[Sar]H[Sta]L-NH2), the “B max (binding sites/cell) *10^5” value in data set [1] turned out to be 1.56 ± 0.39 binding sites/cell *10^5.
For the compound `CC(C)C[C@H](NC(=O)C[C@H](O)[C@H](CC(C)C)NC(=O)[C@H](Cc1c[nH]cn1)NC(=O)CNC(=O)[C@@H](NC(=O)[C@H](C)NC(=O)[C@H](Cc1c[nH]c2ccccc12)NC(=O)[C@H](CCC(N)=O)NC(=O)[C@@H](Cc1ccccc1)NC(=O)COCCOCCNC(=O)COCCOCCNC(=O)CN1CCN(CC(=O)O)CCN(CC(=O)O)CCN(CC(=O)O)CC1)C(C)C)C(N)=O` [BN6, -DPhe-Gln-Trp-Ala-Val-Gly-His-Sta-Leu-NH2], the half-life at 0.6 nmol/mL in data set [3] (setting [7]) is 208 h.
Turning to `CCCC[C@H](NC(=O)[C@H](CC1CCCCC1)NC(=O)[C@H](Cc1c[nH]cn1)NC(=O)CNC(=O)[C@@H](NC(=O)[C@H](C)NC(=O)[C@H](Cc1c[nH]c2ccccc12)NC(=O)[C@H](CCC(N)=O)NC(=O)[C@@H](Cc1ccccc1)NC(=O)COCCOCCNC(=O)COCCOCCNC(=O)CN1CCN(CC(=O)O)CCN(CC(=O)O)CCN(CC(=O)O)CC1)C(C)C)C(N)=O` [BN7, -DPhe-Gln-Trp-Ala-Val-Gly-His-Cha-Nle-NH2], the half-life at 0.6 nmol/mL in data set [3] (setting [7]) was about 20 h. Besides, in the data set with PC-3 xenografts [2] (setting [6]), the “Blood clearance / circulating half-life (in words)” value is “very rapid blood clearance” and the “Tumor targeting / uptake” value is recorded as “overall poor targeting to the receptor-positive xenografts”.
Take `CC(C)C[C@H](NC(=O)C[C@H](O)[C@H](CC(C)C)NC(=O)[C@H](Cc1c[nH]cn1)NC(=O)CN(C)C(=O)[C@@H](NC(=O)[C@H](C)NC(=O)[C@H](Cc1c[nH]c2ccccc12)NC(=O)[C@H](CCC(N)=O)NC(=O)[C@@H](Cc1ccccc1)NC(=O)COCCOCCNC(=O)COCCOCCNC(=O)CN1CCN(CC(=O)O)CCN(CC(=O)O)CCN(CC(=O)O)CC1)C(C)C)C(N)=O` [BN8, DOTA-PEG-DPhe-Gln-Trp-Ala-Val-NMeGly-His-Sta-Leu-NH2]: the figures for the half-life at 0.6 nmol/mL in data set [3] (setting [7]) and in data set [3] (read-out: Serum/plasma half-life) were 414 h and over 360 h, respectively. Moreover, in the data set with PC-3 xenografts [2] (setting [6]), the “Tumor targeting / uptake” value was “highest tumor uptake”. Also, in the data set on PC-3 xenografts [5] (gamma camera, 6 h post injection), the “Imaging contrast of tumor uptake (in words)” value is recorded as “best contrast of tumor uptake compared to other organs”.

For the origin of these results see PMC4761355, “Pre-clinical evaluation of eight DOTA coupled gastrin-releasing peptide receptor (GRP-R) ligands for in vivo targeting of receptor-expressing tumors” (EJNMMI Research, 2016).
